Entries after “also recorded” stand apart in the source; their conditions may differ.
How the values were obtained:
KC6141 mouse PDAC cells = assay: Cell viability assay (CCK-8); type: cell-based; conditions: WT and IKKα KD 6141 cells on ECM, 0.5 mM glucose, 3 days; EIPA, IPI549 600 nM, MBQ-167 500 nM
Experimental: (§1) Extracellular Matrix (ECM) Preparation. Skin fibroblasts were seeded on 6/12/96-well plates. One day after plating, cells were switched into DMEM (with pyruvate) with 10% dialysed FBS supplemented with or without 500 μM ^3H-proline and 100 μM Vitamin C. Cells were cultured for 6 days with media renewal every 24 h. After six days, skin fibroblasts were removed by washing in 1 ml or 500 μl or 100 μl per well PBS with 0.5% (v/v) Triton X-100 and 20 mM NH4OH. ECM was washed five times with PBS before plating KC6141 cells. The following day, KC6141 cells were switched into the indicated medium for 24 or 72 hrs.
Cell viability assay. Cell viability was determined with Cell Counting Kit-8 assay (CCK-8 assay kit, Glpbio). Cells were plated in 96-well plates at a density of 3000 cells (MIA PaCa-2) or 1500 cells (KC6141) per well and incubated overnight prior to treatment. EIPA (10 μM), MRT68921 (600 nM) or erlotinib (2 μM, Sigma) were added to the wells for 72 and 96 hrs. Next, 10 μL of CCK-8 was added to each well. The optical density was read at 450 nm using a microplate reader (FilterMax F5, Molecular Devices, USA) at day 0, 1, 2, 3, and 4. For glutamine-deprivation assays, cells in 96-well plates were rinsed briefly in PBS and incubated in the 0.2 mM glutamine. Glutamine-free DMEM medium was supplemented with 0.2 mM glutamine in the presence of 10% dialysed FBS and 25 mM HEPES. For some conditions, the medium was supplemented with a final concentration of 2% BSA (Fraction V, fatty-acid-, nuclease and protease-free, Calbiochem). For all experiments, media were replaced every 24 hrs. Viable cell counts were obtained using CCK-8 assay described as above.
In some embodiments, cells were plated in 96-well plates coated with or without ECM at a density of 3000 cells (MIA PaCa-2, 1444, 1305, COLO 357/FG) or 1500 cells (KC6141) per well and incubated overnight prior to treatment. EIPA (10.5 μM), IPI549 (600 nM), MBQ-167 (500 nM), MRT68921 (600 nM) or erlotinib (2 μM, Sigma), ML385 (10 μM, Sigma), HCQ (10 μM or 80 μM) or their combinations were added to the wells for 24, 72 or 96 hrs. Next, 10 μL of CCK-8 was added to each well. The optical density was read at 450 nm using a microplate reader (FilterMax F5, Molecular Devices, USA) at day 0, 1, 2, 3, and 4. For glutamine-deprivation assays, cells in 96-well plates were rinsed briefly in PBS and incubated in the 0.2 mM glutamine. Glutamine-free DMEM medium was supplemented with 0.2 mM glutamine in the presence of 10% dialyzed FBS and 25 mM HEPES. For glucose-deprivation assays, cells in 96-well plates were rinsed briefly in PBS and incubated in the 0.5 mM glucose. Glucose-free DMEM medium was supplemented with 0.5 mM glucose in the presence of 10% dialyzed FBS and 25 mM HEPES. For some conditions, the medium was supplemented with a final concentration of 2% BSA (Fraction V, fatty-acid-, nuclease and protease-free, Calbiochem). For all experiments, media were replaced every 24 hrs. Viable cell counts were obtained using CCK-8 assay described as above.

KC6141 cells [1] = assay: Luminescence ATP detection assay; type: cell-based, mouse; conditions: KC6141 cells on ECM, 0.5 mM glucose, 24 hrs; EIPA 10.5 μM, MBQ-167 500 nM, MRT68921 600 nM
Experimental: as §1
Luminescence ATP Detection Assay. Intracellular ATP level was determined with luminescence ATP detection assay system (PerkinElmer) according to manufacturer's protocol. Briefly, KC6141 cells were grown on 96-well plates coated with or without ECM in the presence of 100 μl 0.5 mM glucose medium with or without EIPA (10.5 μM), MBQ-167 (500 nM), MRT68921 (600 nM) or their combinations for 24 hrs. 50 μl mammalian cell lysis solution was added and shaken for 5 minutes. Next, 50 μl substrate solution was added and shaken for five minutes. Finally, plate was adapted in dark for 10 minutes and luminescence was measured.

KC6141 cells [2] = assay: L-Amino acid assay; type: cell-based, mouse; conditions: KC6141 cells on ECM, 0.5 mM glucose, 24 hrs
Experimental: as §1
L-Amino Acid Assay. Total amount of free L-amino acids (except for glycine) were measured by L-Amino Acid Assay Kit (Colorimetric) (antibodies) according to manufacturer's protocol. Briefly, KC6141 cells were grown on 6-well plates coated with or without ECM and treated as above. The cells were resuspended at 10^6 cells/mL 1× Assay Buffer and were homogenized on ice and then centrifuged to remove debris. 50 μL of each L-Alanine standard or cell lysis was added into wells of a 96-well microtiter plate. Then 50 μL of Reaction Mix was added to each well. The well contents were mixed thoroughly and incubated for 90 minutes at 37° C. protected from light. The plate was read with a spectrophotometric microplate reader in the 540-570 nm range. The concentration of L-Amino Acids was calculated within samples by comparing the sample OD to the standard curve.

MIA PaCa-2 cells = assay: Immunoblot of p62 and LC3 (autophagic degradation); type: cell-based, human; conditions: IKKα-deficient (KD) MIA PaCa-2 cells, normal or starvation medium 2 hrs, +/- CQ
Experimental: Autophagy Induction. […] For starvation, cells were incubated in starvation medium (20 mM HEPES pH 7.4, 140 mM NaCl, 1 mM CaC2, 1 mM MgCl2, and 1% BSA) for 1.5 or 2 hrs. For glucose starvation, cells were washed three times with PBS and incubated in glucose-free DMEM containing 10% dialyzed FBS for 4 hrs. Immunoblot and immunoprecipitation. Cells were harvested and lysed in RIPA buffer (50 mM Tris-HCl, pH 7.4, 150 mM NaCl, 1% Triton X-100, 1% Na deoxycholate, 0.1% SDS, 1 mM EDTA) supplemented with complete protease inhibitor cocktail. Proteins were resolved on SDS-polyacrylamide gels, and then transferred to a polyvinylidene difluoride membrane. After blocking with 5% (w/v) fat free milk, the membrane was stained with the corresponding primary antibodies followed by incubation with the appropriate secondary HRP-conjugated antibodies, and development with ECL. Immunoreactive bands were detected by automatic X-ray film processor or KwikQuant Imager.

COLO 357/FG cells = assay: LC3 puncta and p62/LC3 immunoblot; type: cell-based, human; conditions: IKKα^low COLO 357/FG cells, normal or starvation medium 2 hrs, +/- CQ
Experimental: Autophagy Induction. […] For starvation, cells were incubated in starvation medium (20 mM HEPES pH 7.4, 140 mM NaCl, 1 mM CaC2, 1 mM MgCl2, and 1% BSA) for 1.5 or 2 hrs. For glucose starvation, cells were washed three times with PBS and incubated in glucose-free DMEM containing 10% dialyzed FBS for 4 hrs.
Immunoblot and immunoprecipitation. Cells were harvested and lysed in RIPA buffer (50 mM Tris-HCl, pH 7.4, 150 mM NaCl, 1% Triton X-100, 1% Na deoxycholate, 0.1% SDS, 1 mM EDTA) supplemented with complete protease inhibitor cocktail. Proteins were resolved on SDS-polyacrylamide gels, and then transferred to a polyvinylidene difluoride membrane. After blocking with 5% (w/v) fat free milk, the membrane was stained with the corresponding primary antibodies followed by incubation with the appropriate secondary HRP-conjugated antibodies, and development with ECL. Immunoreactive bands were detected by automatic X-ray film processor or KwikQuant Imager.
Data are presented as mean±SEM.

Row | Structure (SMILES) | cell viability enhanced by extracellular matrix (ECM) (KC6141 mouse PDAC cells) | cellular ATP (KC6141 cells [1]) | amino acid content (KC6141 cells [2]) | p62 and LC3-II levels (MIA PaCa-2 cells) | LC3 puncta, LC3 lipidation and p62 on starvation (COLO 357/FG cells) | LC3 puncta, LC3 lipidation and p62 on starvation (COLO 357/FG cells; listed as chloroquine)
1 | CCn1c2ccccc2c2cc(-n3nncc3-c3ccccc3)ccc21 (racemic) [MBQ-167] | suppressed | reduced | reduced |  |  | 
2 | CCN(CC)CCCC(C)Nc1ccnc2cc(Cl)ccc12 (stereo not drawn) [CQ, chloroquine] |  |  |  | did not increase p62 and LC3-II; also recorded: failed to increase p62 and LC3-II | not affected | no effect
